From US20080032924A1 (priority 2004, published 2008) come the findings set out here.

What is called MIC90 is an inhibitory concentration at the 90% level, which refers to growth in some studies and to a panel of isolates in others.

“Also recorded” adds a separate entry of the source. Where no end group is shown, it is not given here.

One assay has as its system Ascochyta rabiei spores. It is filed as cell-based.
Assay [1] relates to Colletotrichum gloeosporioides spores. It is filed as cell-based. On the set-up: key: an N indicates that no activity was observed.
A further assay has as its system Escherichia coli. It is filed as cell-based.
The next assay has as its system Micrococcus luteus. It is filed as cell-based.
For a further assay, the system named is F. graminearum mycelia. It is filed as cell-based, Fusarium graminearum.
The subject of assay [2] is Leptosphaeria maculans spores. It is filed as cell-based.
Assay [3] concerns Fusarium graminearum spores. It is filed as cell-based.
The next assay deals with Aspergillus niger spores. It is filed as cell-based. On the set-up: key: an N indicates that no activity was observed.
The test system of a further assay is F. oxysporum mycelia. It is filed as cell-based, Fusarium oxysporum.
The subject of assay [4] is Fusarium oxysporum spores. It is filed as cell-based.
The subject of the next assay is C. parapsilosis. The assay is described as follows: NCCLS M27-A2 microbroth dilution method. As to conditions: synthetic peptide, tested at 0.125-64 μg/ml. It is filed as cell-based. On the procedure: (§1) Synthetic Gm-moricinA was also tested against six yeast species using the NCCLS M27-A2 microbroth dilution method at the Women's and Children's Hospital (Adelaide, Australia). The yeasts tested were Candida albicans, C. parapsilosis, C. glabrata, C. krusei, C. tropicalis and Cryptococcus neoformans. The peptide was tested at 0.125-64 μg/ml, with each yeast species tested in duplicate. Trays were read at 24, 48 or 72 hours as appropriate.

The test system of a further assay is Candida albicans. Briefly: NCCLS M27-A2 microbroth dilution method. It is filed as cell-based. The note with it: synthetic peptide; C. albicans; tested at 0.125-64 μg/ml; read at 24, 48 or 72 hours. On the procedure: as §1
A general note: Broth dilution looks for growth in wells or tubes with falling amounts of substance.

The test system of the next assay is C. tropicalis. Briefly: NCCLS M27-A2 microbroth dilution method. As to conditions: synthetic peptide, tested at 0.125-64 μg/ml. It is filed as cell-based. The protocol:
as §1

A further assay deals with C. krusei. Briefly: NCCLS M27-A2 microbroth dilution method. It is filed as cell-based. The note with it: synthetic peptide, tested at 0.125-64 μg/ml. On the procedure:
as §1

In another assay the test system is Cryptococcus neoformans. Briefly: NCCLS M27-A2 microbroth dilution method. It is filed as cell-based. As to conditions: synthetic peptide; C. neoformans; tested at 0.125-64 μg/ml. The protocol: as §1
The subject of the next assay is C. glabrata. The assay is described as follows: NCCLS M27-A2 microbroth dilution method. It is filed as cell-based. As to conditions: synthetic peptide, tested at 0.125-64 μg/ml. The protocol: as §1

“Bm-moricin: Synthetic B. mori moricin (residues 25 to 66 of SEQ ID NO:16) (AKIPIKAIKTVGKAVGKGLRAINIASTANDVFNFLKPKKRKH; listed as Bombyx mori) [reference compound]”: the “lowest concentration at which activity was observed in the zone inhibition assay, Ara” value in the assay on Ascochyta rabiei spores stood at 100 µM. In assay [1], the “lowest concentration at which activity was observed in the zone inhibition assay, Cgl” value is listed as “N”. For the same substance, in the assay on Escherichia coli, the “lowest concentration at which activity was observed in the zone inhibition assay, Eco” value is 10 µM. In addition, the “lowest concentration at which activity was observed in the zone inhibition assay, Mlu” value with Micrococcus luteus was 10 µM. The “lowest concentration at which activity was observed in the zone inhibition assay, Fgm” value in the assay with F. graminearum mycelia worked out at 180 µM. For the same substance, the “lowest concentration at which activity was observed in the zone inhibition assay, Lma” value in assay [2] was 100 µM. Moreover, the “lowest concentration at which activity was observed in the zone inhibition assay, Fgr” value in assay [3] is 10 µM. The “lowest concentration at which activity was observed in the zone inhibition assay, Ani” value with Aspergillus niger spores is listed as “N”. Also, the “lowest concentration at which activity was observed in the zone inhibition assay, Fom” value in the assay with F. oxysporum mycelia is 100 µM. Besides, the “lowest concentration at which activity was observed in the zone inhibition assay, Fox” value in assay [4] worked out at 100 µM.

Consider “Gm-moricinB: Antifungal moricin-like peptide from Galleria mellonella, SEQ ID NO:5 (GGQIIGKALRGINIASTAHDIISQFKPKKKKNH; listed as Galleria mellonella)”, for which the “lowest concentration at which activity was observed in the zone inhibition assay, Cgl” value in assay [1] was “N”. Moreover, in the assay on Escherichia coli, the “lowest concentration at which activity was observed in the zone inhibition assay, Eco” value amounted to 100 µM. Besides, the “lowest concentration at which activity was observed in the zone inhibition assay, Mlu” value with Micrococcus luteus is 100 µM. For the same substance, the “lowest concentration at which activity was observed in the zone inhibition assay, Fgm” value in the assay with F. graminearum mycelia is 280 µM. In addition, the “lowest concentration at which activity was observed in the zone inhibition assay, Lma” value in assay [2] turned out to be 100 µM. Also, in [3], the “activity against F. graminearum” value was “showed activity” and the “lowest concentration at which activity was observed in the zone inhibition assay, Fgr” value worked out at 10 µM. Moreover, the “lowest concentration at which activity was observed in the zone inhibition assay, Ani” value in the assay with Aspergillus niger spores is reported as “N”. Moreover, in the assay on F. oxysporum mycelia, the “lowest concentration at which activity was observed in the zone inhibition assay, Fom” value was determined as 280 µM. Further, the “lowest concentration at which activity was observed in the zone inhibition assay, Fox” value in [4] was determined as 100 µM.

Turning to “Gm-moricinC1: Antifungal moricin-like peptide purified from Galleria mellonella hemolymph, SEQ ID NO:48 (KVPIGAIKKGGKIIKKGLGVIGAAGTAHEVYSHVKNRH; listed as Galleria mellonella)”, the “activity against F. graminearum” value in assay [3] is listed as “had activity”.

Turning to “Gm-moricinC2: Moricin-like peptide from Galleria mellonella, SEQ ID NO:53, synthesised (KVPIGAIKKGGKIIKKGLGVLGAAGTAHEVYNHVRNRQ; listed as Galleria mellonella)”, the “lowest concentration at which activity was observed in the zone inhibition assay, Eco” value in the assay on Escherichia coli was 10 µM. Besides, the “lowest concentration at which activity was observed in the zone inhibition assay, Mlu” value in the assay on Micrococcus luteus came out at 100 µM. For the same substance, the “lowest concentration at which activity was observed in the zone inhibition assay, Fgm” value with F. graminearum mycelia came out at 10 µM. In addition, the “lowest concentration at which activity was observed in the zone inhibition assay, Lma” value in assay [2] is 10 µM. Besides, in assay [3], the “lowest concentration at which activity was observed in the zone inhibition assay, Fgr” value came out at 1 µM. Besides, in the assay with Aspergillus niger spores, the “lowest concentration at which activity was observed in the zone inhibition assay, Ani” value is recorded as “N”. Further, the “lowest concentration at which activity was observed in the zone inhibition assay, Fom” value in the assay on F. oxysporum mycelia stood at 10 µM.

Regarding “KVNVNAIKKGGKAIGKGFKVISAASTAHDVYEHIKNRRH [Gm-moricinA]”, in the assay on Ascochyta rabiei spores, the “activity against A. rabiei” value is given as “showed activity”. Besides, the “lowest concentration at which activity was observed in the zone inhibition assay, Ara” value with Ascochyta rabiei spores worked out at 1 µM. In addition, the “lowest concentration at which activity was observed in the zone inhibition assay, Cgl” value in assay [1] is on record as “N”. Also, the “lowest concentration at which activity was observed in the zone inhibition assay, Eco” value in the assay with Escherichia coli was 10 µM. For the same substance, the “lowest concentration at which activity was observed in the zone inhibition assay, Mlu” value in the assay with Micrococcus luteus turned out to be 10 µM. Also, in the assay on F. graminearum mycelia, the “lowest concentration at which activity was observed in the zone inhibition assay, Fgm” value came to 100 µM. The “activity against L. maculans” value in assay [2] is listed as “showed activity”. Further, the “lowest concentration at which activity was observed in the zone inhibition assay, Lma” value in assay [2] is 10 µM. Further, the “activity against F. graminearum” value in [3] is “had activity; also recorded: showed activity”. In addition, in assay [3], the “lowest concentration at which activity was observed in the zone inhibition assay, Fgr” value was found to be 1 µM. Further, the “lowest concentration at which activity was observed in the zone inhibition assay, Ani” value in the assay on Aspergillus niger spores is listed as “N”. In addition, the “lowest concentration at which activity was observed in the zone inhibition assay, Fom” value in the assay with F. oxysporum mycelia amounted to 10 µM. In addition, the “lowest concentration at which activity was observed in the zone inhibition assay, Fox” value in assay [4] stood at 10 µM. For the same substance, the MIC90 against C. parapsilosis came out at 4.0 µg/mL; against Candida albicans, 64.0 µg/mL; in the assay on C. tropicalis, 4.0 µg/mL; in the assay on C. krusei it was 8.0 µg/mL; against Cryptococcus neoformans it was 4.0 µg/mL; against C. glabrata it was 64.0 µg/mL.
